These results are taken from patent US9725462B2, “Pyridopyrimidine derivatives as protein kinase inhibitors” (Merck Patent GmbH, priority 2012, dated 2017).

The target of the experiment is T1, SYK (Homo sapiens, UniProt P43405).
T1 construct: 2.5 nM SYK, 400 nM Biotin-Aha-Aha-KEDPDYEWPSAKK
The experiment is described as follows: SYK Flash Plate Assay (enzyme assay). The following applies: Syk inhibition. It counts as biochemical. An excerpt: The following abbreviations refer respectively to the definitions below: • aq (aqueous), h (hour), g (gram), L (liter), mg (milligram), MHz (Megahertz), min. (minute), mm (millimeter), mmol (millimole), mM (millimolar), m.p. (melting point), eq (equivalent), mL (milliliter), L (microliter), ACN (acetonitrile), AcOH (acetic acid), CDCl3 (deuterated chloroform), CD3OD (deuterated methanol), CH3CN (acetonitrile), c-hex (cyclohexane), DCC (dicyclohexyl carbodiimide), DCM (dichloromethane), DIC (diisopropyl carbodiimide), DIEA (diisopropylethyl-amine), DMF (dimethylformamide), DMSO (dimethylsulfoxide), DMSO-d6 (deuterated dimethylsulfoxide), EDC (1-(3-dimethyl-amino-propyl)-3-ethylcarbodiimide), ESI (Electro-spray ionization), EtOAc (ethyl acetate), Et2O (diethyl ether), EtOH (ethanol), HATU (dimethylamino-([1,2,3]triazolo[4,5-b]pyridin-3-yloxy)-methylene]-dimethyl-ammonium hexafluorophosphate), HPLC (High Performance Liquid Chromatography), i-PrOH (2-propanol), K2CO3 (potassium carbonate), LC (Liquid Chromatography), MeOH (methanol), MgSO4 (magnesium sulfate), MS (mass spectrometry), MTBE (Methyl tert-butyl ether), NaHCO3 (sodium bicarbonate), NaBH4 (sodium borohydride), NMM (N-methyl morpholine), NMR (Nuclear Magnetic Resonance), PyBOP (benzotriazole-1-yl-oxy-tris-pyrrolidino-phosphonium hexafluorophosphate), RT (room temperature), Rt (retention time), SPE (solid phase extraction), TBTU (2-(1-H-benzotriazole-1-yl)-1,1,3,3-tetramethyluromium tetrafluoro borate), TEA (triethylamine), TFA (trifluoroacetic acid), THF (tetrahydrofuran), TLC (Thin Layer Chromatography), UV (Ultraviolet). Description of the In Vitro Assays SYK Flash Plate Assay
The kinase assay is performed either as 384-well Flashplate assay (for e.g. Topcount measurement) or as 384-well Image-Flashplate assay (for LEADseeker measurement).
2.5 nM SYK, 400 nM Biotin-Aha-Aha-KEDPDYEWPSAKK
and 10 μM ATP (spiked with 0.3 μCi 33P-ATP/well) are incubated in a total volume of 50 μl (60 mM Hepes, 10 mM MgCl2, 1.2 mM Dithiothreitol, 0.02% Brij35, 0.1% BSA, pH 7.5) with or without test compound for 1 hours at 30° C. The reaction is stopped with 25 μl 200 mM EDTA. After 30 Min at 30° C. the liquid is removed and each well washed thrice with 100 μl 0.9% sodium chloride solution. Non-specific reaction is determined in presence of 0.1 μM Staurosporine. Radioactivity is measured with Topcount (when using Flashplates) or with LEADseeker (when using Image-Flashplates) respectively. Results (e.g. IC50-values) are calculated with program tools provided by the IT-department (e.g. Symyx Assay Explorer, Genedata Screener). In Vivo Assays CIA

By IC50 is commonly meant the concentration at which inhibition is half-maximal.

Structures can show the parent of a compound that is named as a salt.

`N#Cc1ccc2c(-c3cnc(C(F)F)c4cnc(N[C@@H]5CCCC[C@@H]5N)nc34)c[nH]c2c1` [Compound A87, 3-[2-((1R,2S)-2-amino-cyclohexylamino)-5-difluoromethyl-pyrido[4,3-d]-pyrimidin-8-yl]-1H-indole-6-carbonitrile] registered an IC50 of under 0.1 µM.
With `N[C@H]1CCCC[C@H]1Nc1ncc2cncc(-c3cc4cccc(F)c4[nH]3)c2n1` [Compound A81], the IC50 lay within 0.1 to 1 µM.
In turn, `N[C@@H]1CCCC[C@@H]1Nc1ncc2cncc(-c3c[nH]c4cc(C(F)(F)F)ccc34)c2n1` (stereo in doubt) [Compound A41, (1S,2R)-N-[8-(6-Trifluoromethyl-1H-indol-3-yl)-pyrido[4,3-d]pyrimidin-2-yl]-cyclohexane-1,2-diamine] showed an IC50 of under 0.1 µM.
`COC[C@H](N)CNc1ncc2cncc(-c3c[nH]c4cc(C(F)(F)F)ccc34)c2n1` [Compound A61, (2R)-3-Methoxy-N1-[8-[6-(trifluoromethyl)-1H-indol-3-yl]pyrido[4,3-d]pyrimidin-2-yl]propane-1,2-diamine] returned an IC50 of 1 to 50 µM.
Regarding `NC1CCCCC1Nc1ncc2cncc(-c3c[nH]c4c(F)cccc34)c2n1` (stereo not drawn) [Compound A63, cis-N2-[8-(7-Fluoro-1H-indol-3-yl)pyrido[4,3-d]pyrimidin-2-yl]cyclohexane-1,2-diamine], the IC50 is under 0.1 µM.
Compound `COc1ccc2c(-c3cncc4cnc(N[C@H]5CCCC[C@H]5N)nc34)c[nH]c2c1` (stereo in doubt) [Compound A40, (1S,2R)-N-[8-(6-Methoxy-1H-indol-3-yl)-pyrido[4,3-d]pyrimidin-2-yl]-cyclohexane-1,2-diamine] yielded an IC50 of under 0.1 µM.
Turning to `Cn1cc(-c2cncc3cnc(N[C@@H]4CCCC[C@@H]4N)nc23)cn1` [Compound A2, (1R,2S)—N-[8-(1-Methyl-1H-pyrazol-4-yl)-pyrido[4,3-d]pyrimidin-2-yl]-cyclohexane-1,2-diamine hydrochloride], the IC50 was in the range of 0.1 to 1 µM.
The figure for `Cc1cccc(-c2cnc(N)c3cnc(N[C@@H]4CCCC[C@@H]4N)nc23)c1` (single isomer, unassigned) [Compound A22, N2-((cis)-2-Amino-cyclohexyl)-8-m-tolyl-pyrido[4,3-d]pyrimidine-2,5-diamine] is under 0.1 µM; for `N[C@H]1COCC[C@H]1Nc1ncc2cncc(-c3c[nH]c4ccccc34)c2n1` [Compound A68, (3R,4R)-N4-[8-(1H-Indol-3-yl)-pyrido[4,3-d]pyrimidin-2-yl]-tetrahydro-pyran-3,4-diamine] it is under 0.1 µM; for `N#Cc1ccc2[nH]cc(-c3cncc4cnc(N[C@@H]5CCCC[C@@H]5N)nc34)c2c1` [Compound A44, 3-[2-((1 R,2S)-2-Amino-cyclohexylamino)-pyrido[4,3-d]pyrimidin-8-yl]-1H-indole-5-carbonitrile] it is 0.1 to 1 µM.
Compound `CC(C)C[C@@H](Nc1ncc2cncc(-c3c[nH]c4cc(C#N)ccc34)c2n1)C(N)=O` [Compound A65, (R)-2-[8-(6-Cyano-1H-indol-3-yl)-pyrido[4,3-d]pyrimidin-2-yl-amino]-4-methyl-pentanoic acid amide] displayed an IC50 of under 0.1 µM.
The value for `Cc1cccc2[nH]c(-c3cncc4cnc(N[C@H]5CCCC[C@H]5N)nc34)cc12` (stereo in doubt) [Compound A66, (1S,2R)-N-[8-(4-Methyl-1H-indol-2-yl)-pyrido[4,3-d]pyrimidin-2-yl]-cyclohexane-1,2-diamine] was 1 to 50 µM; that for `N[C@@H]1CCCC[C@@H]1Nc1ncc2cncc(-c3cc4ccc(F)cc4[nH]3)c2n1` (stereo in doubt) [Compound A42, (1S,2R)-N-[8-(6-Fluoro-1H-indol-2-yl)-pyrido[4,3-d]pyrimidin-2-yl]-cyclohexane-1,2-diamine] was 1 to 50 µM.
Turning to `CC(C)n1cc(-c2cncc3cnc(N[C@@H]4CCCC[C@@H]4N)nc23)cn1` [Compound A26, (1S,2R)-[8-(1-Isopropyl-1H-pyrazol-4-yl)-pyrido[4,3-d]pyrimidin-2-yl]-cyclohexane-1,2-diamine], the IC50 was in the range of 1 to 50 µM.
As for `NC(=O)c1ccc2c(-c3cncc4cnc(N[C@@H]5CCCC[C@@H]5N)nc34)c[nH]c2c1` [Compound A77, 3-[2-((1R,2S)-2-amino-cyclohexylamino)-pyrido[4,3-d]pyrimidin-8-yl]-1H-indole-6-carboxylic acid amide], the IC50 is under 0.1 µM.
`COc1ccc2[nH]c(-c3cnc(N)c4cnc(N[C@@H]5CCCC[C@@H]5N)nc34)cc2c1` (relative stereo) [Compound A19, N2-(cis-2-Amino-cyclohexyl)-8-(5-methoxy-1H-indol-2-yl)-pyrido[4,3-d]pyrimidine-2,5-diamine] displayed an IC50 of under 0.1 µM.
For the compound `NC1CCOCC1Nc1ncc2cncc(-c3c[nH]c4cc(C(F)(F)F)ccc34)c2n1` (stereo not drawn) [Compound A49, cis-N3-[8-[6-(trifluoromethyl)-1H-indol-3-yl]pyrido[4,3-d]pyrimidin-2-yl]tetrahydropyran-3,4-diamine], the IC50 is under 0.1 µM.
Compound `N#Cc1cccc2c(-c3cncc4cnc(N[C@@H]5CCCC[C@@H]5N)nc34)c[nH]c12` [Compound A72, 3-[2-((1R,2S)-2-amino-cyclohexylamino)-pyrido[4,3-d]pyrimidin-8-yl]-1H-indole-7-carbonitrile] came in with an IC50 of under 0.1 µM.
The value for `CC(C)Cn1cc(-c2cnc(N)c3cnc(N[C@H]4CCCC[C@H]4N)nc23)cn1` (relative stereo) [Compound A8, N2-(cis-2-Amino-cyclohexyl)-8-(1-isobutyl-1H-pyrazol-4-yl)-pyrido[4,3-d]pyrimidine-2,5-diamine] was 0.1 to 1 µM; that for `N[C@@H]1CCCC[C@@H]1Nc1ncc2cncc(-c3c[nH]c4ccccc34)c2n1` (stereo in doubt) [Compound A27, (1S,2R)-N-[8-(1H-Indol-3-yl)-pyrido[4,3-d]pyrimidin-2-yl]-cyclohexane-1,2-diamine] was under 0.1 µM.
The figure for `Cn1cc(-c2cnc(C(F)F)c3cnc(N[C@@H]4CCCC[C@@H]4N)nc23)cn1` [Compound A91, (1R,2S)—N-[5-difluoromethyl-8-(1-methyl-1H-pyrazol-4-yl)-pyrido-[4,3-d]pyrimidin-2-yl]-cyclohexane-1,2-diamine] is 0.1 to 1 µM; for `N[C@@H]1CCCC[C@@H]1Nc1ncc2cncc(-c3cc4n(n3)CCOC4)c2n1` (stereo in doubt) [Compound A43, (1S,2R)-N-[8-(6,7-Dihydro-4H-pyrazolo[5,1-c][1,4]oxazin-2-yl)-pyrido[4,3-d]pyrimidin-2-yl]-cyclohexane-1,2-diamine] it is 1 to 50 µM; for `Nc1ncc(-c2cccc(-n3nccn3)c2)c2nc(N[C@H]3CCCC[C@H]3N)ncc12` (relative stereo) [Compound A3, N2-(cis-2-Amino-cyclohexyl)-8-(3-[1,2,3]triazol-2-yl-phenyl)-pyrido[4,3-d]pyrimidine-2,5-diamine] it is 0.1 to 1 µM.
In turn, `Cc1ncc(-c2c[nH]c3cc(C(F)(F)F)ccc23)c2nc(N[C@@H]3CCCC[C@@H]3N)ncc12` (single isomer, unassigned) [Compound A88] showed an IC50 of 1 to 50 µM.
As for `Nc1ncc(-c2ccc(OC(F)(F)F)cc2)c2nc(N[C@@H]3CCCC[C@@H]3N)ncc12` (single isomer, unassigned) [Compound A14, N2-((cis)-2-Amino-cyclohexyl)-8-(4-trifluoromethoxy-phenyl)-pyrido[4,3-d]pyrimidine-2,5-diamine], the IC50 was in the range of 0.1 to 1 µM.
